Measurements from patent publication US4278658A, “Deodorant composition” (priority 1978, dated 1981).

Molecular target: T1, lipoxidase (ECl.12.1.13) (Glycine max, UniProt P08170)
T1 sequence (P08170 1-839): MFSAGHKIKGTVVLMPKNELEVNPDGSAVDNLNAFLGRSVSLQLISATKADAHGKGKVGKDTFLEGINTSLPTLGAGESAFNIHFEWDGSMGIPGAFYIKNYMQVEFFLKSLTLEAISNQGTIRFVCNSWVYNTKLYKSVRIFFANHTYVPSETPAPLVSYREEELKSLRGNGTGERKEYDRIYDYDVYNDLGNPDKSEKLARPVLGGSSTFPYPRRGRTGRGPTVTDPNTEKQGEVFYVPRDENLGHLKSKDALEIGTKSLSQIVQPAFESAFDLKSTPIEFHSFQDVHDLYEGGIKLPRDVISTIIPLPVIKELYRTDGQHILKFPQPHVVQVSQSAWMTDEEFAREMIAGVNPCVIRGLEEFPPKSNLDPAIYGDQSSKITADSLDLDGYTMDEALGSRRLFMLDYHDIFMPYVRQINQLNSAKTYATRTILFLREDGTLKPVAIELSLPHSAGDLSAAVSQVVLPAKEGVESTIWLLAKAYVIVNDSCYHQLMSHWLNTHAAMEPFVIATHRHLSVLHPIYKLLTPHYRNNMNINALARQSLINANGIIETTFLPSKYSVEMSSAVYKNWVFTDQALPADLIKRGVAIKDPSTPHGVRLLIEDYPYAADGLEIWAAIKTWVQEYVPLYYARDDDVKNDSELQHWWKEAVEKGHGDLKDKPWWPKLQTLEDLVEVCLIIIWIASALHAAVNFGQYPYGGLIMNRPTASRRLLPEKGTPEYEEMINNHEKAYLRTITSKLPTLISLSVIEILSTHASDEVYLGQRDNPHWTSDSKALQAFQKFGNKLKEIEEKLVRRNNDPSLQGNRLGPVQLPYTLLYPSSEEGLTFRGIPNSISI
Test: Lipoxidase test: inhibition of oxidation of linoleic acid by lipoxidase
Type: biochemical
Set-up: inhibition: concentration or dose not given beside the values
Details: % inhibition = 100 (S1-S2)/S1; 0.5% by weight solution of material in ethanol in test substrate; borate buffer pH 9.0; 234 nm

Point of comparison: Dimyrcetol, “LIC (lipoxidase inhibiting capacity)” value 16%. Against it:
- i-Nonyl acetate — higher, 50%

Same assay, conditions: pH 9

Point of comparison: i-Nonyl formate, “LIC (lipoxidase inhibiting capacity)” value 19%. Against it:
- Tetrahydromuguol — higher, 24%

Same assay, conditions: pH 9; read-out: LIC (lipoxidase inhibiting capacity)

Point of comparison: `CC(C=O)Cc1ccc(C(C)(C)C)cc1` (stereo not drawn) [p-t-Butyl-α-methyl hydrocinnamic aldehyde], inhibition 74%. Against it:
- CC1COCc2cc3c(cc21)C(C)(C)C(C)C3(C)C (stereo not drawn) [1,3,4,6,7,8-Hexahydro-4,6,6,7,8,8-hexamethyl cyclopenta-α-2-benzopyran] — higher, 100%
- CCCCCCCC1CCCC1=O (stereo not drawn) [2-n-Heptylcyclopentanone] — lower, 56%
- CC1(C)CCCC2(C)C1CCC1(C)OCCC12 (stereo not drawn) [3a-Methyl-dodecahydro-6,6,9a-trimethylnaphtho(2,1-b)furan] — lower, 58%
- O=c1ccc2ccccc2o1 [Coumarin] — lower, 58%
- CCCCCCC(CCOC(C)=O)OC(C)=O (stereo not drawn) [Nonanediol-1,3-diacetate] — lower, 33%
- CCCCCC1CCC(=O)O1 (stereo not drawn) [Nonanolide-1:4] — higher, 92%
- OCCc1ccccc1 [Phenylethyl alcohol] — lower, 22%
- CC(C)CCOC(=O)c1ccccc1O [iso-Amyl salicylate] — higher, 95%
- CC(=O)OC1CCCCC1C(C)(C)C (stereo not drawn) [o-t-Butylcyclohexyl acetate] — lower, 52%
- CCC(C)(C)C1CCC(=O)CC1 [p-t-Amyl cyclohexanone] — lower, 50%
- CC(=O)OC1CCC(C(C)(C)C)CC1 (stereo not drawn) [p-t-Butylcyclohexyl acetate] — lower, 54%

Point of comparison: `O=C(OCc1ccccc1)c1ccccc1O` [Benzyl salicylate], inhibition at 0.5 % strength 0%. Against it:
- Cc1ccc(C(C)C)cc1O [Carvacrol] — higher, 32%
- CCOC(=O)c1ccccc1C(=O)OCC [Diethyl phthalate] — higher, 79%
- CCOc1cc(C=O)ccc1O [Ethyl vanillin] — higher, 100%
- C/C=C\c1ccc(O)c(OC)c1 [iso-Eugenol] — higher, 100%
- CC(=O)c1ccc2ccccc2c1 [β-Methyl naphthyl ketone] — higher, 100%

System: not listed separately
Test: Morpholine test: depression of the partial vapour pressure of morpholine beyond Raoult's Law
Details: morpholine 0.25 g + material 1 g, 37° C., 30 minutes, headspace GC

Point of comparison: `CC(=O)OC1CCC(C(C)(C)C)CC1` (stereo not drawn) [p-t-Butylcyclohexyl acetate], “RVR (Raoult variance ratio)” value 0.98. Against it:
- CCCCCCCC1CCCC1=O (stereo not drawn) [2-n-Heptylcyclopentanone] — higher, 1.05
- CC1(C)CCCC2(C)C1CCC1(C)OCCC12 (stereo not drawn) [3a-Methyl-dodecahydro-6,6,9a-trimethylnaphtho(2,1-b)furan] — higher, 1.30
- O=C(OCc1ccccc1)c1ccccc1O [Benzyl salicylate] — higher, 1.58
- Cc1ccc(C(C)C)cc1O [Carvacrol] — higher, 1.43
- O=c1ccc2ccccc2o1 [Coumarin] — higher, 1.22
- CCOC(=O)c1ccccc1C(=O)OCC [Diethyl phthalate] — higher, 1.20
- CCOc1cc(C=O)ccc1O [Ethyl vanillin] — higher, 1.43
- CCCCCCC(CCOC(C)=O)OC(C)=O (stereo not drawn) [Nonanediol-1,3-diacetate] — higher, 1.17
- CCCCCC1CCC(=O)O1 (stereo not drawn) [Nonanolide-1:4] — lower, 0.87
- OCCc1ccccc1 [Phenylethyl alcohol] — higher, 1.24
- CC(C)CCOC(=O)c1ccccc1O [iso-Amyl salicylate] — higher, 1.24
- C/C=C\c1ccc(O)c(OC)c1 [iso-Eugenol] — higher, 1.48
- CC(=O)OC1CCCCC1C(C)(C)C (stereo not drawn) [o-t-Butylcyclohexyl acetate] — higher, 1.08
- CCC(C)(C)C1CCC(=O)CC1 [p-t-Amyl cyclohexanone] — higher, 1.10
- CC(=O)c1ccc2ccccc2c1 [β-Methyl naphthyl ketone] — lower, 0.96
- Dimyrcetol — higher, 1.22
- Tetrahydromuguol — higher, 1.23
- i-Nonyl acetate — lower, 0.83
- i-Nonyl formate — higher, 1.49
